These are literature values, as cited in patent US20120053222A1, “Novel Metabolic Disease Therapy” (priority 2009, published 2012).

The subject of this series is ob/ob mice. Particulars: injection.

For exendin 4, the liver steatosis entry was “diminishes liver steatosis”.
